The values below come from US20240239771A1, “BACTERIAL EFFLUX PUMP INHIBITORS” (priority 2020, published 2024).

Assay [1] has as its system Pseudomonas aeruginosa ATCC 27853. The experiment in a line: Intrinsic MIC assay (CLSI broth microdilution). The assay is classed as cell-based. Conditions: ATCC27853, read-out: Intrinsic MIC of Compound. As for the experimental part:
MIC assays were conducted in accordance with Clinical and Laboratory Standards Institute (CLSI) guidelines for broth microdilution. A 96-well plate containing cation-adjusted Mueller-Hinton (CAMH broth with 2-fold serial dilution of compounds was inoculated with log-phase bacterial at 5×10^5 CFU/mL. The final volume in each well was 100 μL. Each compound was tested in duplicate. The microtiter plates were incubated in an aerobic environment for 18 hours at 37° C. Then the bacterial growth was tested by reading the plate with a VersaMax plate reader (Molecular Devices, Inc.) at 600 nm. The MIC was defined as the lowest compound concentration that inhibited 90% of bacteria growth.
The intrinsic MIC of the experimental EPIs was tested with the method described. The 2-fold serial dilution begins with 100 μg/mL of tested compound in the first column of the 96-well plates. The following Gram-negative bacterial strain was included in these assays: Pseudomonas aeruginosa ATCC 27853.

Assay [2] shares this test system. Description: Standard EPI assay: MIC of test antibiotic in absence and presence of EPI. The assay is classed as cell-based. To be noted: for Enhanced Antibiotic's Activity (fold increase), Ceftazidime: ceftazidime with compound at 6.25 μg/mL, relative to MIC without EPI (2 μg/mL); for Enhanced Antibiotic's Activity (fold increase), Doxycycline: doxycycline with compound at 6.25 μg/mL, relative to MIC without EPI (32 μg/mL); for Enhanced Antibiotic's Activity (fold increase), Levofloxacin: levofloxacin with compound at 6.25 μg/mL, relative to MIC without EPI (1 μg/mL); for MIC of antibiotic in the absence of EPI: antibiotic alone, P. aeruginosa ATCC 27853. As for the experimental part:
The EPI assay for the purposes of these studies represents a MIC assay in which the MIC of the antibiotic against the bacteria is tested in the presence of an experimental efflux pump inhibitor (EPI). The highest concentration of the EPI present in the assay typically is ½ of the intrinsic MIC of the compound. If the intrinsic MIC of the EPI is greater than 100 μg/mL, the EPI assay was tested with 50 μg/mL. Using serial dilutions of the EPI, its enhancement of antibiotic activity was then evaluated. The relative EPI activity was decided by comparing the MIC of the antibiotic in the presence of the EPI compound with the intrinsic MIC of the antibiotic alone.
The impact of the EPIs on the MIC values of three test antibiotics (levofloxacin, ceftazidime and doxycycline) against P. aeruginosa ATCC 27853 were evaluated using our standard EPI assay. All three antibiotics levofloxacin, ceftazidime and doxycycline are known substrates of efflux pumps in P. aeruginosa, and are thus well-suited to be test antibiotics to assay for EPI activity.
In our standard EPI assay, the MIC of the test antibiotic is determined in the absence and presence of sub-inhibitory concentrations of the EPI. […] The MIC of levofloxacin against P. aeruginosa ATCC 27853 in the absence of EPI is 1 μg/mL. […] Similarly, the MIC of ceftazidime against P. aeruginosa ATCC 27853 in the absence of EPI is 2 μg/mL. In the presence of 6.25 μg/mL of the Example 4, the MIC of ceftazidime was reduced to 0.5 μg/mL, a 4-fold reduction. […] For all the examples in Table 1, the potentiation activities are determined at 6.25 μg/mL.

Where a name gives a salt, the structure may show the parent alone.

For the molecule `NCC[C@@H](O)[C@@H](N)CNC(=O)c1[nH]c2ccccc2c1-c1ccc(F)cc1` [Example 1, N-((2S,3R)-2,5-diamino-3-hydroxypentyl)-3-(4-fluorophenyl)-1H-indole-2-carboxamide hydrogen chloride salt], the MIC in assay [1] is more than 100 µg/mL. Also, in assay [2], the “Enhanced Antibiotic's Activity (fold increase), Ceftazidime” value is listed as 1 fold; the “Enhanced Antibiotic's Activity (fold increase), Doxycycline” value stood at 16 fold; the “Enhanced Antibiotic's Activity (fold increase), Levofloxacin” value was 8 fold.

Turning to `NCCC(O)[C@@H](N)CNC(=O)c1[nH]c2ccccc2c1-c1ccccc1` (stereo partly drawn) [Example 2, N-((2S)-2,5-diamino-3-hydroxypentyl)-3-phenyl-1H-indole-2-carboxamide hydrogen chloride salt], in assay [1], the minimum inhibitory concentration (MIC) was more than 100 µg/mL. Also, in assay [2], the “Enhanced Antibiotic's Activity (fold increase), Doxycycline” value worked out at 16 fold and the “Enhanced Antibiotic's Activity (fold increase), Levofloxacin” value worked out at 8 fold.

As for `NCCC(O)[C@@H](N)CNC(=O)c1[nH]c2ccccc2c1C1CCCC1` (stereo partly drawn) [Example 4, 3-cyclopentyl-N-((2S)-2,5-diamino-3-hydroxypentyl)-1H-indole-2-carboxamide hydrogen chloride salt], in assay [1], the MIC is more than 100 µg/mL. Moreover, in assay [2], the “Enhanced Antibiotic's Activity (fold increase), Ceftazidime” value is 4 fold; the “Enhanced Antibiotic's Activity (fold increase), Doxycycline” value was 32 fold; the “Enhanced Antibiotic's Activity (fold increase), Levofloxacin” value is 32 fold.

As to `NCCC(O)[C@@H](N)CNC(=O)c1[nH]c2ccc(F)cc2c1C1CCCCC1` (stereo partly drawn) [Example 5, 3-cyclohexyl-N-((2S)-2,5-diamino-3-hydroxypentyl)-5-fluoro-1H-indole-2-carboxamide hydrogen chloride salt], the minimum inhibitory concentration (MIC) in assay [1] amounted to 50 µg/mL. Besides, in assay [2], the “Enhanced Antibiotic's Activity (fold increase), Ceftazidime” value is 16 fold; the “Enhanced Antibiotic's Activity (fold increase), Doxycycline” value is on record as 32 fold; the “Enhanced Antibiotic's Activity (fold increase), Levofloxacin” value worked out at 32 fold.

As to `NCCC(O)[C@@H](N)CNC(=O)c1[nH]c2ccccc2c1C1CCC(F)(F)CC1` (stereo partly drawn) [Example 6, N-((2S)-2,5-diamino-3-hydroxypentyl)-3-(4,4-difluorocyclohexyl)-1H-indole-2-carboxamide hydrogen chloride salt], the minimal inhibitory concentration (MIC) in assay [1] worked out at 100 µg/mL. Moreover, in assay [2], the “Enhanced Antibiotic's Activity (fold increase), Ceftazidime” value came out at 4 fold; the “Enhanced Antibiotic's Activity (fold increase), Doxycycline” value was 16 fold; the “Enhanced Antibiotic's Activity (fold increase), Levofloxacin” value is 64 fold.

Turning to `NCCC(O)[C@@H](N)CNC(=O)c1[nH]c2ccccc2c1-c1ccccc1F` (stereo partly drawn) [Example 7, N-((2S)-2,5-diamino-3-hydroxypentyl)-3-(2-fluorophenyl)-1H-indole-2-carboxamide hydrogen chloride salt], the minimum inhibitory concentration (MIC) in assay [1] is more than 100 µg/mL. In assay [2], the “Enhanced Antibiotic's Activity (fold increase), Ceftazidime” value was determined as 1 fold; the “Enhanced Antibiotic's Activity (fold increase), Doxycycline” value is listed as 4 fold; the “Enhanced Antibiotic's Activity (fold increase), Levofloxacin” value was 2 fold.

As for `NCC(O)C[C@H](N)CNC(=O)c1[nH]c2ccc(F)cc2c1-c1ccccc1Cl` (stereo partly drawn) [Example 8, 3-(2-chlorophenyl)-N-((2S)-2,5-diamino-4-hydroxypentyl)-5-fluoro-1H-indole-2-carboxamide hydrogen chloride salt], the MIC in assay [1] is more than 100 µg/mL. Besides, in assay [2], the “Enhanced Antibiotic's Activity (fold increase), Ceftazidime” value was 2 fold; the “Enhanced Antibiotic's Activity (fold increase), Doxycycline” value was determined as 16 fold; the “Enhanced Antibiotic's Activity (fold increase), Levofloxacin” value stood at 16 fold.

On to `N#Cc1ccc(-c2c(C(=O)NC[C@@H](N)CC(O)CN)[nH]c3ccc(F)cc23)cc1` (stereo partly drawn) [Example 9, 3-(4-cyanophenyl)-N-((2S)-2,5-diamino-4-hydroxypentyl)-5-fluoro-1H-indole-2-carboxamide hydrogen chloride salt], for which the minimum inhibitory concentration (MIC) in assay [1] is more than 100 µg/mL. Also, in assay [2], the “Enhanced Antibiotic's Activity (fold increase), Ceftazidime” value amounted to 2 fold; the “Enhanced Antibiotic's Activity (fold increase), Doxycycline” value amounted to 32 fold; the “Enhanced Antibiotic's Activity (fold increase), Levofloxacin” value is 32 fold.

For the molecule `NCC(O)C[C@H](N)CNC(=O)c1[nH]c2ccccc2c1-c1ccc(F)cc1` (stereo partly drawn) [Example 10, 3-(4-fluorophenyl)-N-((2S)-2,5-diamino-4-hydroxypentyl)-1H-indole-2-carboxamide hydrogen chloride salt], the MIC in assay [1] was determined as 100 µg/mL. Further, in assay [2], the “Enhanced Antibiotic's Activity (fold increase), Ceftazidime” value was 4 fold; the “Enhanced Antibiotic's Activity (fold increase), Doxycycline” value amounted to 32 fold; the “Enhanced Antibiotic's Activity (fold increase), Levofloxacin” value turned out to be 16 fold.

With `N#Cc1ccc(-c2c(C(=O)NC[C@@H](N)CC(O)CN)[nH]c3ccccc23)cc1` (stereo partly drawn) [Example 11, 3-(4-cyanophenyl)-N-((2S)-2,5-diamino-4-hydroxypentyl)-1H-indole-2-carboxamide hydrogen chloride salt], in assay [1], the MIC is more than 100 µg/mL. In addition, in assay [2], the “Enhanced Antibiotic's Activity (fold increase), Ceftazidime” value is listed as 1 fold; the “Enhanced Antibiotic's Activity (fold increase), Doxycycline” value came to 16 fold; the “Enhanced Antibiotic's Activity (fold increase), Levofloxacin” value is reported as 16 fold.

Take `NCC(O)C[C@H](N)CNC(=O)c1[nH]c2ccccc2c1-c1ccccc1` (stereo partly drawn) [Example 12, N-((2S)-2,5-diamino-4-hydroxypentyl)-3-phenyl-1H-indole-2-carboxamide hydrogen chloride salt]: in assay [1], the MIC was more than 100 µg/mL. For the same molecule, in assay [2], the “Enhanced Antibiotic's Activity (fold increase), Ceftazidime” value is reported as 2 fold; the “Enhanced Antibiotic's Activity (fold increase), Doxycycline” value is listed as 32 fold; the “Enhanced Antibiotic's Activity (fold increase), Levofloxacin” value is on record as 16 fold.

On to `NCC(O)C[C@H](N)CNC(=O)c1[nH]c2ccc(F)cc2c1-c1ccccc1` (stereo partly drawn) [Example 13, N-((2S)-2,5-diamino-4-hydroxypentyl)-5-fluoro-3-phenyl-1H-indole-2-carboxamide hydrogen chloride salt], for which the MIC in assay [1] was more than 100 µg/mL. Further, in assay [2], the “Enhanced Antibiotic's Activity (fold increase), Ceftazidime” value worked out at 2 fold; the “Enhanced Antibiotic's Activity (fold increase), Doxycycline” value turned out to be 32 fold; the “Enhanced Antibiotic's Activity (fold increase), Levofloxacin” value turned out to be 32 fold.

With `N#Cc1ccc(-c2c(C(=O)NC[C@@H](N)CC(O)CN)[nH]c3c(F)cccc23)cc1` (stereo partly drawn) [Example 14, 3-(4-cyanophenyl)-N-((2S)-2,5-diamino-4-hydroxypentyl)-7-fluoro-1H-indole-2-carboxamide hydrogen chloride salt], in assay [1], the MIC was more than 100 µg/mL. Also, in assay [2], the “Enhanced Antibiotic's Activity (fold increase), Ceftazidime” value is given as 1 fold; the “Enhanced Antibiotic's Activity (fold increase), Doxycycline” value was 16 fold; the “Enhanced Antibiotic's Activity (fold increase), Levofloxacin” value is on record as 32 fold.

With `NCC(O)C[C@H](N)CNC(=O)c1[nH]c2ccccc2c1C1CCCCC1` (stereo partly drawn) [Example 15, 3-cyclohexyl-N-((2S)-2,5-diamino-4-hydroxypentyl)-1H-indole-2-carboxamide hydrogen chloride salt], in assay [1], the MIC came out at 50 µg/mL. In assay [2], the “Enhanced Antibiotic's Activity (fold increase), Ceftazidime” value was 4 fold; the “Enhanced Antibiotic's Activity (fold increase), Doxycycline” value is recorded as 32 fold; the “Enhanced Antibiotic's Activity (fold increase), Levofloxacin” value came to 32 fold.

With `NCC(CO)C[C@@H](N)CNC(=O)c1[nH]c2ccccc2c1-c1ccc(F)cc1` (stereo partly drawn) [Example 16, N-((2R)-2,5-diamino-4-(hydroxymethyl)pentyl)-3-(4-fluorophenyl)-1H-indole-2-carboxamide hydrogen chloride salt], the minimum inhibitory concentration (MIC) in assay [1] is more than 100 µg/mL. In assay [2], the “Enhanced Antibiotic's Activity (fold increase), Ceftazidime” value amounted to 2 fold; the “Enhanced Antibiotic's Activity (fold increase), Doxycycline” value is on record as 32 fold; the “Enhanced Antibiotic's Activity (fold increase), Levofloxacin” value was 16 fold.

Regarding `CC(C)(O/N=C(\C(=O)N[C@@H]1C(=O)N2C(C(=O)[O-])=C(C[n+]3ccccc3)CS[C@H]12)c1csc(N)n1)C(=O)O` [ceftazidime, Ceftazidime, reference compound], the “MIC of antibiotic in the absence of EPI” value in assay [2] was determined as 2 µg/mL.

With `C[C@H]1c2cccc(O)c2C(=O)C2=C(O)[C@]3(O)C(=O)C(C(N)=O)=C(O)[C@@H](N(C)C)[C@@H]3[C@@H](O)[C@@H]21` [doxycycline, Doxycycline, reference compound], the “MIC of antibiotic in the absence of EPI” value in assay [2] was 32 µg/mL.

Regarding `C[C@H]1COc2c(N3CCN(C)CC3)c(F)cc3c(=O)c(C(=O)O)cn1c23` [levofloxacin, Levofloxacin, reference compound], the “MIC of antibiotic in the absence of EPI” value in assay [2] was determined as 1 µg/mL.

By MIC is commonly meant the least concentration at which growth counts as inhibited.
